Data from PMC8318231, “Rate-of-Kill (RoK) assays to triage large compound sets for Chagas disease drug discovery: Application to GSK Chagas Box” (PLoS Neglected Tropical Diseases, 2021).

Experiments:
TcCYP51 = settings: formerly reported; cited from earlier work
[1] = tested on: T. cruzi Tulahuen trypomastigotes; test: T. cruzi trypomastigote assay (Cell Titer-Glo viability, ATP luminescence); format: cell-based, Trypanosoma cruzi; settings: for Trypomastigotes pIC50 48 hours: 48 hours incubation; for Trypomastigotes pIC50 48 hours / Trypomastigotes pIC50 72 hours: pIC50 = -log10 IC50 in molar units; for Trypomastigotes pIC50 72 hours: 72 hours incubation; for 72 pIC50 (trypomastigotes, raw data of Fig 1D): 72 hours, plotted values, censored values given without sign; for 48 pIC50 / 72 pIC50: trypomastigote assay; for 48 pIC50: 48 h; for 72 pIC50: 72 h
Procedure, shortened: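 Compounds were tested in dose response or once at a final 5 μM against 5 × 10^4 trypomastigotes per well (DMEM, 2% FBS), collected on days 5–8 from LLC-MK2 infected cultures. ATP luminescence via CellTiter-Glo reports live parasites; DMSO defines 0% and cell-free wells 100% effect.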

[2] = tested on: T. cruzi intracellular amastigotes in H9c2 cells; test: Rate-of-Kill (RoK) high-content imaging assay, amastigotes per cell (AM/CELL) and curve descriptors; format: cell-based, Trypanosoma cruzi; parameters: key to ME_24h / ME_48h / ME_72h: % reduction in parasite burden (cidal response); t50pct_MCC50 / t50pct_Cmax: unit not given here; settings: for ME_24h: 24h; for ME_48h: 48h; for ME_72h: 72h; for AM/CELL NORM: sheet figure 4 A; for tlag_Cmax / t50pct_Cmax / t50%_Cmax: at Cmax; for ME_24h (%): maximum effect at 24 h; for ME_24h (%) / ME_48h (%) / ME_72h (%): RoK assay; for ME_48h (%): maximum effect at 48 h; for ME_72h (%): maximum effect at 72 h; for ME 24h (maximum effect at 24 hours, intracellular amastigotes): maximum percentage of parasite burden reduction reached by any concentration
Protocol: For this high-content intracellular imaging assay, H9c2 cells were seeded in 225 cm^2 T- FLASK in DMEM with 10% FBS for 4 h to allow attachment. T. cruzi trypomastigotes, collected at days 5 to 8 after infection from LLC-MK2 parasite infected cultures, were allowed to swim out for 4 h at 37°C from a centrifuged pellet (1,600 x g / 10 min). Trypomastigotes were then collected and counted in a CASY Cell Counter using the 60 μm capillary. Trypomastigotes, in supplemented DMEM, were added to H9c2 cultures in a multiplicity of infection (MOI) of 8 and incubated for 18 h. Cells were washed once with PBS before incubation of the infected H9c2 monolayer with trypsin (Life-Technologies) to detach cells from the flask. Cells were counted in a CASY Cell Counter, using the 150 μm capillary, and their density set at 5 x 10^4 cells/mL in supplemented DMEM. Infected H9c2 were dispensed into 384-well plates at 50 μL per well using a Multidrop Combi dispenser. Control wells used to determine a 100% parasitic growth (full 6th column of each plate) were left untreated, whereas not infected cells were added in the control wells used as 0% parasite growth (or 100% parasite growth inhibition; full 18th column of each plate). The four plates corresponding to each RoK assay were predispensed for the same mother plate. […] Cultures were then fixed and stained with 50 μL per well of a PBS solution containing 4% formaldehyde and 2 μM DRAQ5 DNA dye (BioStatus, UK). Then plates were read in a PerkinElmer Opera Phenix using a 20x objective, 3 fields per well. DRAQ5 signal was detected using 640 nm excitation laser and a 690/50 nm emission detection filter. Automated image analysis was performed with a script developed on Acapella High Content Imaging and Analysis Software (PerkinElmer). Two outputs were provided for each sample well: (1) number of host cells nuclei to determine drug-related cytotoxicity (aka H9c2) and (2) number of amastigotes per cell as infection level measurement (aka AM/CELL). Each output is plotted as a time course for each compound at every concentration. This assay was adapted from Alonso-Padilla et al. and Peña et al..
To identify and classify the different compounds, the number of amastigotes per cell (AM/CELL) raw data obtained in rate of kill assay are normalised using the average of C1 (infected cells) at time 4 hours as 0% effect and the average of C2 (non-infected cells) for each time as 100% effect, according to the following Eq 1: %CIDALRESPONSE=100*[Avg_C14h-RawData]/[Avg_C14h-Avg_C2] (1)
• ME (Maximum Effect) is the maximum percentage of parasite burden reduction reached by any compound concentration. Compounds that decrease the initial parasite load will show a positive value of ME, whereas compounds that allow the progression of infection will render a negative ME value. […] It is calculated for the MCC50 (t50%_MCC50) and for the maximum concentration (t50%_Cmax). […] The value of this parameter is not either interpolated or extrapolated, and it refers to the first experimental time-course point at which a 50% of effect is reached or exceeded. • tlag defines the time elapsed for one particular concentration to reduce parasite burden between two consecutive points at any moment of the time course. It is calculated for the MCC50 (tlag_MCC50) and for the maximum concentration (tlag_Cmax). The value of this parameter is not either interpolated or extrapolated, and it refers to the first experimental time-course point of a positive slope in the normalised plot (i.e. %Cidal_Response). • Cmin_Tox (Minimal CytoToxic Concentration) is the lowest compound concentration that is reducing the number of host mammalian cells below 50% of initial cell density. Cytotoxic compounds may mislead a bona fide antiparasitic action.

SMILES | CYP51 pIC50 (TcCYP51) | Trypomastigotes pIC50 48 hours [1] | Trypomastigotes pIC50 72 hours [1] | ME_24h ([2]; figure 5) | ME_48h ([2]; figure 5) | ME_72h ([2]; figure 5) | MCCE ([2]; RoK curve descriptor) [µM] | AM/CELL NORM ([2]; Time 4) | AM/CELL NORM ([2]; Time 24) | AM/CELL NORM ([2]; Time 48) | AM/CELL NORM ([2]; Time 72) | tlag_Cmax [2] [h] | t50pct_Cmax ([2]; figure 5) | tlag_Cmax ([2]; figure 5) | t50pct_MCC50 ([2]; at MCC50, figure 5) | tlag_MCC50 ([2]; at MCC50, figure 5) | MCCE ([2]; figure 5) | ME_24h (%) [2] [%] | ME_48h (%) [2] [%] | ME_72h (%) [2] [%] | further results
Cn1cncc1CN1CCC2(CC1)COC(Cc1ccccc1)C2 (stereo not drawn) [TCMDC-143502] | 6 | < 4.3 | < 4.3 | -3.518 | 29.7799 | 64.8887 | 1.9 | 12.5806 | -3.518 | -12.3342 | 16.2947 | 48.0 | 72 | 48 | 72 | 24 | 1.852 | -3.5 | 29.8 | 64.9 | 72 pIC50 (trypomastigotes, raw data of Fig 1D) [1]: < 4.3; 48 pIC50 ([1]; figure 1A): < 4.3; 72 pIC50 ([1]; figure 1A): < 4.3; 72 pIC50 ([1]; figure 1B): < 4.3; MCC50 ([2]; RoK curve descriptor): 5.6 µM; t50%_MCC50 ([2]; at MCC50): 72.0 h; tlag_MCC50 ([2]; at MCC50): 24.0 h; MCC50 ([2]; figure 5, in µM): 5.556; ME 24h (maximum effect at 24 hours, intracellular amastigotes) [2]: -3.518%
COc1cc(C(C)C)c(S(C)(=O)=O)cc1C(=O)N1CCN(c2ccccc2Cl)CC1 [TCMDC-143097] | < 4 | < 4.3 | < 4.3 | -95.8223 | -1.8208 | 22.9753 | 1.9 | -12.0353 | -95.8223 | -56.5005 | 8.079 | 24.0 | 72 | 24 | 72 | 72 | 1.852 | -95.8 | -1.8 | 23.0 | 72 pIC50 (trypomastigotes, raw data of Fig 1D) [1]: < 4.3; 48 pIC50 ([1]; figure 1A): < 4.3; 72 pIC50 ([1]; figure 1A): < 4.3; 72 pIC50 ([1]; figure 1B): < 4.3; MCC50 ([2]; figure 5): 50 µM; ME 24h (maximum effect at 24 hours, intracellular amastigotes) [2]: -95.8223%
COc1ccc(-c2nc3ncccc3o2)cc1NC(=O)c1cccs1 [TCMDC-143137] | < 4 | < 4.3 | 5.2 | 22.8714 | 76.8526 | 102.262 | 5.6 | -5.518 | 19.5521 | 76.8526 | 68.9196 | 4.0 | 48 | 4 | 48 | 4 | 5.556 | 22.9 | 76.9 | 102.3 | activity in trypomastigotes assay (in words) ([1]; 48 and 72 hours): only active in trypomastigote assay at 72 hours; cidality in the RoK assay (in words) [2]: not signs of cidality at 24 hours; ME / cidal effect at 72 hours ([2]; 72 hours): 100%; MCC50 ([2]; RoK curve descriptor): 16.7 µM; t50%_Cmax [2]: 48.0 h; t50%_MCC50 ([2]; at MCC50): 48.0 h; tlag_MCC50 ([2]; at MCC50): 4.0 h; MCC50 ([2]; figure 5, in µM): 16.6667; ME 24h (maximum effect at 24 hours, intracellular amastigotes) [2]: 22.8714%
O=C(CSc1ccc(F)cc1)N[C@@H](Cc1cnc[nH]1)C(=O)NCCc1ccccc1.O=C(O)C(F)(F)F [TCMDC-143317] | 7.1 | < 4.3 | < 4.3 | -217.337 | -137.825 | 44.5659 | 1.2 | -0.3431 | -195.022 | -169.506 | 59.3586 | 24.0 | 72 | 24 | 72 | 48 | 1.235 | -217.3 | -137.8 | 44.6 | 72 pIC50 (trypomastigotes, raw data of Fig 1D) [1]: < 4.3; 48 pIC50 ([1]; figure 1A): < 4.3; 72 pIC50 ([1]; figure 1A): < 4.3; 72 pIC50 ([1]; figure 1B): < 4.3; MCC50 ([2]; RoK curve descriptor): 50.0 µM; t50%_Cmax [2]: 72.0 h; t50%_MCC50 ([2]; at MCC50): 72.0 h; tlag_MCC50 ([2]; at MCC50): 24.0 h; MCC50 ([2]; figure 5): 50 µM; ME 24h (maximum effect at 24 hours, intracellular amastigotes) [2]: -157.067%
